These results are taken from US20080226718A1, “Indole and Azaindole Derivatives For the Treatment of Inflammatory and Autoimmune Diseases” (Brane Discovery S.r.l, priority 2005, published 2008).

In assay [1] the test system is encephalitogenic lymphocytes. Put plainly: Spontaneous adhesion of encephalitogenic T cells on purified VCAM-1. Type of assay: cell-based, SJL mice. As to the method: Spontaneous adhesion of encephalitogenic lymphocytes was measured in adhesion assays on purified ICAM-1 and VCAM-1 as previously described (Constantin G. et al., J. Immunol. 162, 1144-1149, 1999). Autoreactive T cells were obtained from SJL mice immunized with PLP139-151 as described (Piccio L. et al., J. Immunol. 168, 1940-1949, 2002). Lymphocytes were treated with test compound at concentrations between 5-100 μM for 1 h, while control/untreated cells were treated with vehicle (DMSO). Results are expressed as percentage of inhibition over control (=100%) ±S.D and are the mean of three-four experiments.
ICAM-1 and VCAM-1 are adhesion molecules from the family of immunoglobulins and control the migration of lymphocytes through the endothelium during inflammatory responses. Encephalitogenic T cells are activated lymphocytes displaying spontaneous adhesion on ICAM-1 and VCAM-1 and have increased migration capacities in inflammation sites. Spontaneous adhesion of encephalitogenic lymphocytes was measured in adhesion assays on purified ICAM-1 and VCAM-1 as described in the method.

For assay [2], the system named is NADPH-oxidase. Description: Respiratory burst (H2O2 assay), NADPH-oxidase activation in PMNs. It counts as cell-based. The settings on record: PMA 200 ng/ml; 10, 50, 100 μM; FIG. 1a. As to the method: (§1) NADPH-oxidase activation was measured as induction of H2O2 release (derived from dismutation of O2^−) triggered in PMNs and monocytes by PMA (200 ng/ml). Briefly, PMNs and monocytes were pretreated at 37° C. for 30-60 min with test compound at different concentrations, and stimulated with phorbol 12-myristate 13-acetate (PMA, 200 ng/ml) dissolved in 0.5 ml of a standard reaction mixture. Release of H2O2 was evaluated in real time at time points of 5 min by using a microplate fluorescence reader (Perkin-Elmer). Results are expressed as nmoles of H2O2 released over time by 10^6 cells. Shown are dose-response curves of inhibitory effect on H2O2 release over 60 min.

Assay [3] relates to NADPH-oxidase. Put plainly: Respiratory burst (H2O2 assay), NADPH-oxidase activation in monocytes. The settings on record: PMA 200 ng/ml; 10, 50, 100 μM; FIG. 1b. It counts as cell-based. The procedure:
as §1

SMILES strings stand for the structures.

`COC(=O)c1[nH]c2cc(OC)c(OC)cc2c1-c1ccc(OC)cc1` [Example 1]: the “Blocking spontaneous adhesion to VCAM-1, in words” value in assay [1] is reported as “very efficient”. The inhibition at 5 µM in assay [1] (Mus musculus, Lymphocyte, [cpd] 5 μM, 1 h, read-out: Inhibition of Spontaneous Adhesion in encephalitogenic lymphocytes (% of control/non-treated cells) VCAM-1) was 46%. Moreover, in assay [1] (Mus musculus, Lymphocyte, [cpd] 10 μM, 1 h, read-out: Inhibition of Spontaneous Adhesion in encephalitogenic lymphocytes (% of control/non-treated cells) VCAM-1 (converted)), the inhibition at 10 µM was 66%. Further, the inhibition at 25 µM in assay [1] (Mus musculus, Lymphocyte, [cpd] 25 μM, 1 h, read-out: Inhibition of Spontaneous Adhesion in encephalitogenic lymphocytes (% of control/non-treated cells) VCAM-1 (converted)) is 74%. Besides, in assay [1] (Mus musculus, Lymphocyte, [cpd] 50 μM, 1 h, read-out: Inhibition of Spontaneous Adhesion in encephalitogenic lymphocytes (% of control/non-treated cells) VCAM-1 (converted)), the inhibition at 50 µM is 92.4%. In the assay with NADPH-oxidase [2], the “NADPH-oxidase activation (H2O2 release) in PMNs, in words” value is given as “inhibits NADPH-oxidase activation”. The “NADPH-oxidase activation (H2O2 release) in monocytes, in words” value in the assay with NADPH-oxidase [3] is reported as “inhibits NADPH-oxidase activation”.
